We go through one molecule from patent US11813277B2, “Methods and agents for modulating inflammation” (The Regents of the University of California, priority 2018, dated 2023).

For experiment [1], the system named is M(IL-4) polarization. The settings on record: cited from earlier work.
The test system of experiment [2] is BMDMs. As to the kind of experiment: Substrate-specific respirometry in permeabilized cells. In kind it is cell-based, mouse. The following applies: 3 μM etomoxir.
For experiment [3], the system named is adenine nucleotide translocase (ANT). Briefly: ATP hydrolysis in isolated mitochondria, intact or alamethicin-permeabilized. The format is biochemical, rat. From the text: ATP hydrolysis in isolated mitochondria (McQuaker, S. J., Quinlan, C. L., Caldwell, S. T., Brand, M. D., and Hartley, R. C. (2013). A prototypical small molecule modulator uncouples mitochondria in response to endogenous hydrogen peroxide production. Chembiochem. 14, 993-1000; Divakaruni, A. S., Andreyev, A. Y., Rogers, G. W., and Murphy, A. N. (2017a) In situ measurements of mitochondrial matrix enzyme activities using plasma and mitochondrial membrane permeabilization agents. Anal. Biochem. 17, 30385-8) was performed in MAS buffer, and stimulated by respiratory chain inhibition (1 μM rotenone and 2 μM antimycin A) followed by addition of excess ATP (25 mM) and uncoupler (1 μM FCCP). Hydrolysis was inhibited by injection of either oligomycin (3 ng/mg mitochondrial protein) or carboxyatractylo side (7.5 ng/mg mitochondrial protein). Rates of extracellular acidification (ECAR, in mpH/min) were converted to proton production rates (PPR, in pmol H+/min) by determining the buffer capacity with sequential injections of HCl and H2SO4 (Mookerjee, S. A., Goncalves, R. L., Gerencser, A. A., Nicholls, D. G., and Brand, M. D. (2015). The contributions of respiration and glycolysis to extracellular acid production. Biochim et Biophys Acta. 1847, 171-81). 10 μg/mL alamethicin was used to permeabilize the mitochondrial inner membrane (1 μg/mg mitochondrial protein).

For experiment [4], the system named is isolated rat liver mitochondria. As to the kind of experiment: ADP- vs FCCP-stimulated respiration in isolated liver mitochondria. The format is biochemical. The following applies: high etomoxir (100 μM), pyruvate/malate. The method, then: Mouse liver mitochondria were isolated according to standard techniques (Rogers, G. W., Brand, M. D., Petrosyan, S., Ashok, D., Elorza, A. A., Ferrick, D. A., and Murphy, A. N. (2011) High throughput microplate respiratory measurements using minimal quantities of isolated mitochondria. PLoS One. 6, e21746). The liver from a male mouse was minced and rinsed several times in MSHE [70 mM sucrose, 210 mM mannitol, 5 mM HEPES (pH 7.2), and 1 mM EGTA with 0.5% (w/v) fatty acid-free BSA] to remove blood. Tissue was disrupted using a drill-driven Teflon-on-glass Dounce homogenizer (between 2-4 strokes). The homogenate was centrifuged at 800 g for 10 min and the supernatant was filtered through cheesecloth and centrifuged at 8000 g for 10 min. […]
Phosphorylating respiration was measured in isolated liver mitochondria (1.5 μg/well) as previously described (Rogers, G. W., Brand, M. D., Petrosyan, S., Ashok, D., Elorza, A. A., Ferrick, D. A., and Murphy, A. N. (2011) High throughput microplate respiratory measurements using minimal quantities of isolated mitochondria. PLoS One. 6, e21746), and offered 10 mM pyruvate, 1 mM malate, and 4 mM ADP. Uncoupler stimulated respiration was measured after addition of oligomycin (3 ng/mg mitochondrial protein) and FCCP (4 μM). […]

Experiment [5] concerns BMDMs. Briefly: Mass spectrometry-based metabolomics of BMDMs. The following applies: IL-4. In kind it is cell-based, mouse. The method, then:
Cell. 173, 470-484. Briefly, cells were seeded in 6-well dishes at 1×10^6 cells/well. Cells were treated with IL-4 with and without etomoxir co-treatments (3 μM or 200 μM) similarly to other experiments. To extract intracellular metabolites, cells were briefly rinsed with cold 150 mM ammonium acetate (pH 7.3), followed by addition of 1 ml cold 80% MeOH on dry ice. Cells were detached with cell scrapers and suspensions transferred into centrifuge tubes. After rigorous mixing, the suspension was pelleted by centrifugation (1.3×104 rpm, 4° C.). The supernatant was transferred into a glass vial, metabolites were dried down under vacuum, and resuspended in 50% (v/v) acetonitrile including heavy isotope-labeled amino acids as internal standards (Chen, W. W., Freinkman, E. and Sabatini, D. M. (2017) Rapid immunopurification of mitochondria for metabolite profiling and absolute quantification of matrix metabolites. Nat. Protoc. 12, 2215-2231).
For the mass spectrometry-based analysis of the sample, 5 μL were injected onto a Luna NH2 (150 mm×2 mm, Phenomenex) column. The samples were analyzed with an UltiMate 3000RSLC (Thermo Scientific) coupled to a Q Exactive mass spectrometer (Thermo Scientific). The Q Exactive was run with polarity switching (+3.50 kV/−3.50 kV) in full scan mode with an m/z range of 65-975. Separation was achieved using A) 5 mM NH4AcO (pH 9.9) and B) ACN. The gradient started with 15% A) going to 90% A) over 18 min, followed by an isocratic step for 9 min and reversal to the initial 15% A) for 7 min. Metabolites were quantified with El Maven (v0.2.4) using accurate mass measurements (≤3 ppm) and retention times of pure standards. Data analysis was performed using the statistical language R. For the PCA and clustering analyses, only metabolites with an ANOVA p-value≤0.05 were incorporated. For visualization using heatmaps, metabolites were scaled across samples but not across metabolites. To assess what metabolites contributed the most to a given metabolic phenotype, we calculated the correlation between the loading vector for a given metabolite and the score vector of a given sample for PCs 1 and 2.

Molecules are shown by their SMILES. Entries after “also recorded” stand apart in the source; their conditions may differ.

As for `CCOC(=O)[C@@]1(CCCCCCOc2ccc(Cl)cc2)CO1` [etomoxir], in experiment [1] (200 μM etomoxir), the “blocking M(IL-4) polarization in Cpt2-/- BMDMs vs WT” value is reported as “equally effective”. Moreover, the “IL-4-associated markers / IL-4 response” value in experiment [1] (etomoxir 10 μM to 100 μM) is “unaffected; also recorded: fail to affect”. For the same molecule, the “palmitoyl CoA oxidation” value in experiment [2] is given as “significant effect”. In experiment [2] (glutamate/malate, pyruvate/malate, palmitoylcarnitine/malate, succinate/rotenone), the “respiration driven by substrates which do not require CPT-1” value is given as “no effect”. In experiment [3] (alamethicin-permeabilized mitochondria), the ATP hydrolysis result is reported as “no effect”. The ATP hydrolysis entry in experiment [3] (intact isolated mitochondria, etomoxir 100 μM, CAT 7.5 ng/mg, oligomycin 3 ng/mg) is given as “inhibited ATP hydrolysis”. Also, the “respiration driven by ADP versus FCCP” value in experiment [4] is “greater inhibitory effect on respiration driven by ADP versus FCCP”. In addition, in experiment [5] (3 μM etomoxir), the intracellular pantothenate levels result is given as “no change” and the “metabolite profile (PCA)” value is reported as “no appreciable change”. For the same molecule, in experiment [5] (200 μM etomoxir), the “intracellular pantothenate levels, increase” value is recorded as “three-fold” and the “metabolite composition (PCA)” value is on record as “profound change”.
